Laboratory results as given in patent US20230013669A1, “Antibacterial Treatment Using a Cannabinoid and an Active Agent” (priority 2019, published 2023).
“And” between values parts separate entries of the source, which are not always exact repeats. Equal entries are not always repeated. Where two headings read alike, the source gives them in different places.

Key:
[1] = test system: Escherichia coli HS71 (GN_110), CTX-M; test: Synergy of cannabidiol with cell-wall disrupting agent (CBD MIC in combination, FICI); format: cell-based; conditions: for MIC: Escherichia coli
Experimental: (§1) The compounds were stored short term at 4° C.
(§2) Analysis was performed using Microsoft Excel.

[2] = test system: Pseudomonas aeruginosa ATCC 27853 (GN_042); test: as above; format: cell-based
Experimental: as §1, §2

[3] = CBD with Ceftazidime, Pseudomonas aeruginosa ATCC 27853

C=C(C)C1CCC(C)=CC1c1c(O)cc(CCCCC)cc1O (centres unmarked) [Cannabidiol, 2-[3-methyl-6-(1-methylethenyl)-2-cyclohexen-1-yl]-5-pentyl-1,3-benzenediol]
MIC ([1]; read-out: CBD MIC with MCC_09222 at concentration 2 μg/mL, Example 9, GN_110): 4 µg/mL
MIC ([1]; read-out: CBD MIC with MCC_09222 at concentration 4 μg/mL, Example 9, GN_110): 1 µg/mL
MIC ([1]; read-out: CBD MIC with MCC_09222 at concentration 8 μg/mL, Example 9, GN_110): 1 µg/mL
MIC ([1]; read-out: CBD MIC with MCC_09222 at concentration 16 μg/mL, Example 9, GN_110): 0.5 µg/mL
MIC ([1]; read-out: CBD MIC with MCC_09222 at concentration 32 μg/mL, Example 9, GN_110): 0.000977 µg/mL
MIC ([1]; read-out: CBD MIC with MCC_09222 at concentration 64 μg/mL, Example 9, GN_110): 0.000977 µg/mL
MIC ([1]; read-out: CBD MIC with MCC_09222 at concentration 128 μg/mL, Example 9, GN_110): 0.000977 µg/mL
cannabidiol in combination with MCC_09222: synergy ([1]; Example 9): synergistic effect
CBD MIC with MCC_09222 at concentration 16 μg/mL ([1]; Example 9, GN_110, listed as CBD): 1 µg/mL
CBD MIC with Aztreonam ([2]; Aztreonam at 4 μg/mL): 0.001 µg/mL
FICI ([2]; CBD with Aztreonam at 0.25 μg/mL, CBD MIC taken as 256 μg/mL): 1.0625
FICI ([2]; CBD with Aztreonam at 1 μg/mL, CBD MIC taken as 256 μg/mL): 1.25
FICI ([2]; CBD with Aztreonam at 2 μg/mL, CBD MIC taken as 256 μg/mL): 0.5004 and 0.5039
FICI ([2]; CBD with Aztreonam at 4 μg/mL, CBD MIC taken as 256 μg/mL): 1
FICI range ([2]; CBD with Aztreonam, Synergy table (Table 76)): 0.5
FICI range ([2]; CBD with Aztreonam, all tested concentrations (Table 74)): 0.5-1.25
FICI ([2]; CBD with Cefepime at 0.015 μg/mL, CBD MIC taken as 256 μg/mL): 1
FICI ([2]; CBD with Cefepime at 0.031 μg/mL, CBD MIC taken as 256 μg/mL): 1
FICI ([2]; CBD with Cefepime at 0.062 μg/mL, CBD MIC taken as 256 μg/mL): 1
FICI ([2]; CBD with Cefepime at 0.25 μg/mL, CBD MIC taken as 256 μg/mL): 1.001
FICI ([2]; CBD with Cefepime at 0.5 μg/mL, CBD MIC taken as 256 μg/mL): 1.002
FICI range ([2]; CBD with Cefepime, all tested concentrations (Table 79)): 1-1
FICI ([2]; CBD with Cefotetan at 4 μg/mL, CBD MIC taken as 256 μg/mL): 1.016
FICI ([2]; CBD with Cefotetan at 16 μg/mL, CBD MIC taken as 256 μg/mL): 1.0625
FICI ([2]; CBD with Cefotetan at 64 μg/mL, CBD MIC taken as 256 μg/mL): 1.25
FICI ([2]; CBD with Cefotetan at 128 μg/mL, CBD MIC taken as 256 μg/mL): 1.5
FICI range (MIC table) ([2]; CBD with Cefotetan, Pseudomonas aeruginosa ATCC 27853): 1.02-1.5
FICI ([2]; CBD with Ceftazidime at 0.25 μg/mL, Pseudomonas aeruginosa ATCC 27853): 1.0625
FICI ([2]; CBD with Ceftazidime at 1 μg/mL, Pseudomonas aeruginosa ATCC 27853): 1.25
FICI ([2]; CBD with Ceftazidime at 2 μg/mL, Pseudomonas aeruginosa ATCC 27853): 0.5
FICI ([2]; CBD with Ceftazidime at 4 μg/mL, Pseudomonas aeruginosa ATCC 27853): 1
FICI range (MIC table) [2, 3]: 0.5-1.25
FICI range (Synergy table) [2, 3]: 0.5
FICI ([2]; CBD with Cefuroxime at 4 μg/mL, Pseudomonas aeruginosa ATCC 27853): 1.016
FICI ([2]; CBD with Cefuroxime at 16 μg/mL, Pseudomonas aeruginosa ATCC 27853): 1.0625
FICI ([2]; CBD with Cefuroxime at 64 μg/mL, Pseudomonas aeruginosa ATCC 27853): 1.25
FICI ([2]; CBD with Cefuroxime at 128 μg/mL, Pseudomonas aeruginosa ATCC 27853): 1.5
FICI ([2]; CBD with Colistin at 0.031 μg/mL, Pseudomonas aeruginosa ATCC 27853): 1.031
FICI ([2]; CBD with Colistin at 0.062 μg/mL, Pseudomonas aeruginosa ATCC 27853): 1.062
FICI ([2]; CBD with Colistin at 0.25 μg/mL, Pseudomonas aeruginosa ATCC 27853): 1.25
FICI ([2]; CBD with Colistin at 0.5 μg/mL, Pseudomonas aeruginosa ATCC 27853): 1.5
FICI ([2]; CBD with Colistin at 1 μg/mL, Pseudomonas aeruginosa ATCC 27853): 1
FICI range (MIC table) ([2]; CBD with Colistin, Pseudomonas aeruginosa ATCC 27853): 1-1.5
FICI range (MIC table) ([2]; CBD with MCC_6442, Pseudomonas aeruginosa ATCC 27853): 1-1.5
FICI ([2]; CBD with MCC_6442 at 0.25 μg/mL, Pseudomonas aeruginosa ATCC 27853): 1.0625
FICI ([2]; CBD with MCC_6442 at 1 μg/mL, Pseudomonas aeruginosa ATCC 27853): 1.25
FICI ([2]; CBD with MCC_6442 at 2 μg/mL, Pseudomonas aeruginosa ATCC 27853): 1.5
FICI ([2]; CBD with MCC_6442 at 4 μg/mL, Pseudomonas aeruginosa ATCC 27853): 1
FICI ([2]; CBD with Octapeptin C4 at 0.25 μg/mL, CBD MIC taken as 256 μg/mL): 1.0625
FICI ([2]; CBD with Octapeptin C4 at 0.5 μg/mL, CBD MIC taken as 256 μg/mL): 1.0625
FICI ([2]; CBD with Octapeptin C4 at 1 μg/mL, CBD MIC taken as 256 μg/mL): 1.25
FICI ([2]; CBD with Octapeptin C4 at 2 μg/mL, CBD MIC taken as 256 μg/mL): 1.25 and 1.5
FICI ([2]; CBD with Octapeptin C4 at 4 μg/mL, CBD MIC taken as 256 μg/mL): 0.5 and 1
FICI ([2]; CBD with Octapeptin C4 at […], CBD MIC taken as 256 μg/mL): 1.016
FICI range ([2]; CBD with Spero SPR206, 1st of 3 experiments): 1-4
FICI range ([2]; CBD with Spero SPR206, 3rd of 3 experiments): 1.13-5
FICI ([2]; CBD with Spero SPR206 at 0.25 μg/mL, 1st of 3 experiments, CBD MIC taken as 256 μg/mL): 1.25
FICI ([2]; CBD with Spero SPR206 at 0.25 μg/mL, 3rd of 3 experiments, CBD MIC taken as 256 μg/mL): 1.25
FICI ([2]; CBD with Spero SPR206 at 0.5 μg/mL, 1st of 3 experiments, CBD MIC taken as 256 μg/mL): 1.5
FICI ([2]; CBD with Spero SPR206 at 0.5 μg/mL, 3rd of 3 experiments, CBD MIC taken as 256 μg/mL): 1.5
FICI ([2]; CBD with Spero SPR206 at 1 μg/mL, 1st of 3 experiments, CBD MIC taken as 256 μg/mL): 1
FICI ([2]; CBD with Spero SPR206 at 1 μg/mL, 3rd of 3 experiments, CBD MIC taken as 256 μg/mL): 2
FICI ([2]; CBD with Spero SPR206 at 2 μg/mL, 1st of 3 experiments, CBD MIC taken as 256 μg/mL): 2
FICI ([2]; CBD with Spero SPR206 at 2 μg/mL, 3rd of 3 experiments, CBD MIC taken as 256 μg/mL): 3
FICI ([2]; CBD with Spero SPR206 at 4 μg/mL, 1st of 3 experiments, CBD MIC taken as 256 μg/mL): 4
FICI ([2]; CBD with Spero SPR206 at 4 μg/mL, 3rd of 3 experiments, CBD MIC taken as 256 μg/mL): 5
FICI ([2]; CBD with Ticarcillin at 2 μg/mL, Pseudomonas aeruginosa ATCC 27853): 1.0625
FICI ([2]; CBD with Ticarcillin at 4 μg/mL, Pseudomonas aeruginosa ATCC 27853): 1.25
FICI ([2]; CBD with Ticarcillin at 8 μg/mL, Pseudomonas aeruginosa ATCC 27853, listed as CBD): 1.25 and 1.5
FICI ([2]; CBD with Ticarcillin at 16 μg/mL, Pseudomonas aeruginosa ATCC 27853, listed as CBD): 0.5 and 1
FICI ([2]; CBD with Ticarcillin at 32 μg/mL, Pseudomonas aeruginosa ATCC 27853, listed as CBD): 1 and 2
FICI ([2]; CBD with Ticarcillin at 64 μg/mL, Pseudomonas aeruginosa ATCC 27853, listed as CBD): 2 and 4
FICI range (Synergy table) ([2]; CBD with Ticarcillin, Pseudomonas aeruginosa ATCC 27853): 0.5
CBD MIC with Cefotetan ([2]; Cefotetan at 4 μg/mL): >32 µg/mL
CBD MIC with Cefotetan ([2]; Cefotetan at 4 μg/mL, Pseudomonas aeruginosa ATCC 27853): >256 µg/mL
CBD MIC with Cefotetan ([2]; Cefotetan at 8 μg/mL): >32 µg/mL
CBD MIC with Cefotetan ([2]; Cefotetan at 8 μg/mL, Pseudomonas aeruginosa ATCC 27853): >256 µg/mL
CBD MIC with Cefotetan ([2]; Cefotetan at 16 μg/mL): >32 µg/mL
CBD MIC with Cefotetan ([2]; Cefotetan at 16 μg/mL, Pseudomonas aeruginosa ATCC 27853): >256 µg/mL
CBD MIC with Cefotetan ([2]; Cefotetan at 32 μg/mL): >32 µg/mL
CBD MIC with Cefotetan ([2]; Cefotetan at 32 μg/mL, Pseudomonas aeruginosa ATCC 27853): >256 µg/mL
CBD MIC with Cefotetan ([2]; Cefotetan at 64 μg/mL): >32 µg/mL
CBD MIC with Cefotetan ([2]; Cefotetan at 64 μg/mL, Pseudomonas aeruginosa ATCC 27853): >256 µg/mL
